Experimental data published in patent publication US10821079B2, “PKC activators and combinations thereof” (Cognitive Research Enterprises, Inc., priority 2011, dated 2020).
Where two headings read alike, the source gives them in different places.

How the values were obtained:
PKC [1] = details: cited from earlier work
[2] = cited from earlier work
PKCα [3] = target: T1, PKCα (Homo sapiens, UniProt P17252); test: Activation of purified PKC isozymes, radiometric: PKC-α; assay type: biochemical
Method: (§1) To measure PKC activity, 10 μg of protein from either cytosol or membrane was incubated for 15 min at 37° C. in the presence of 10 μM histones, 4.89 mM CaCl2, 1.2 μg/μl phosphatidyl-L-serine, 0.18 μg/μl 1,2-dioctanoyl-sn-glycerol, 10 mM MgCl2, 20 mM HEPES (pH 7.4), 0.8 mM EDTA, 4 mM EGTA, 4% glycerol, 8 μg/ml aprotinin, 8 μg/ml leupeptin, 2 mM benzamidine, and 0.5 μCi of [γ-^32P]ATP. [^32P]Phosphoprotein formation was measured by adsorption onto phosphocellulose as described previously. See Nelson et al. (2009) J Biol Chem 284, 34514-34521. For measurements of activation by RA, PKC activity was measured in the absence of diacylglycerol (DAG) and phosphatidylserine, as described by Nelson et al. (2009) J Biol Chem 284, 34514-34521. PKC-δ and PKC-ε were measured in the absence of added EGTA and CaCl^2, as described by Kanno et al. (2006) J Lipid Res 47, 1146-1156. The enzyme was provided as a purified isozyme for in vitro experiments.
(§2) To measure PKC, 10 μl of cell homogenate or purified PKC isoform was incubated for 15 min at 37° C. in the presence of 10 μM histones, 4.89 mM CaCl2, 1.2 μg/μl phosphatidyl-L-serine, 0.18 μg/μl 1,2-dioctanoyl-sn-glycerol, 10 mM MgCl2, 20 mM HEPES (pH 7.4), 0.8 mM EDTA, 4 mM EGTA, 4% glycerol, 8 μg/ml aprotinin, 8 μg/ml leupeptin, and 2 mM benzamidine. [γ32P]ATP (0.5 μCi) was added and 32P-phosphoprotein formation was measured by adsorption onto phosphocellulose as described previously. See Nelson et al., J. Neurochemistry, 1995, 65: 2350-2357.
(§3) PKC activity of each compound was measured in the absence of diacylglycerol and phosphatidylserine and PKC-δ and PKC-ε were measured in the absence of added EGTA and CaCl2, as described by Kanno et al., J. Lipid Res., 2006, 47: 1146-1156. Low concentrations of Ca^2+ were needed because high Ca^2+ can interact with the PKC phosphatidylserine binding site and prevents activation. […] To determine their PKC isoform specificity, the compounds were pre-incubated with purified isoforms of PKC for five minutes and the PKC activity was measured radiometrically.
(§4) The activation and PKC isozyme specificity of DCPLA-ethyl ester was measured following the procedures in Example 1(B) and (C), except that 9 ng of the purified isozyme was used and it was pre-incubated for 5 minutes at room temperature (FIG. 3). PKC-ε activation by DCPLA-tert-butyl ester and DCPLA-retinyl ester was measured in the same manner as DCPLA-ethyl ester (FIG. 3).

PKC-ε [4] = target: T2, PKC-ε (Homo sapiens, UniProt Q02156); test: Activation of purified PKC isozymes, radiometric: PKC-ε; assay type: biochemical
T2 sequence (Q02156 1-737): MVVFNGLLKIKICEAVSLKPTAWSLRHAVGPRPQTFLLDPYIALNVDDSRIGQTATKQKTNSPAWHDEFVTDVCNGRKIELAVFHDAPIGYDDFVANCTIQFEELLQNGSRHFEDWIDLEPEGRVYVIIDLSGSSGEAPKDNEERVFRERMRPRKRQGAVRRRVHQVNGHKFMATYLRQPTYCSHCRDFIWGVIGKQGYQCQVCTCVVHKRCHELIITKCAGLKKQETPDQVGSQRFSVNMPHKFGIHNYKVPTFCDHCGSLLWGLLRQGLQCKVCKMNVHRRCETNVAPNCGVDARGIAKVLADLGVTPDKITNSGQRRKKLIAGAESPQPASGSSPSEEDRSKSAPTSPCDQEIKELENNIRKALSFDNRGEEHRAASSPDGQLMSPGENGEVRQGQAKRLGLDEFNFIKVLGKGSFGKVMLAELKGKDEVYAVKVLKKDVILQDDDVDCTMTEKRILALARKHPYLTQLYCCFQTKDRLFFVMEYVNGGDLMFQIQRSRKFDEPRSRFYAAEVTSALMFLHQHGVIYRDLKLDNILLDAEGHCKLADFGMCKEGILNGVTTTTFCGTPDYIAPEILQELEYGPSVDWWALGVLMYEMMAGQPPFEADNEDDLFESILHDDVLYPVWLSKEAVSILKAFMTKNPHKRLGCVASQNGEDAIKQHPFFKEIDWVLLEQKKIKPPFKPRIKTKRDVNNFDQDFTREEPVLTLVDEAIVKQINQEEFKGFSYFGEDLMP
Method: as §2, §3, §4
The EC50 values, PKC specificity, and activation for a select number of DCPLA esters was determined (see Table 1). EC50 values were determined by measuring the lowest concentration that activates by 50% of maximum activation. […] The specificity and activation of PKC by the various esters of DCPLA were calculated from the measurements of activation of PKC isozymes.

PKC-δ = PKC-δ (Homo sapiens, UniProt Q05655); test: Activation of purified PKC isozymes, radiometric: PKC-δ; assay type: biochemical
Method: as §1, §2, §3

PKC [5] = details: cited from earlier work; remark: listed apart in the source
PKC [6] = target: T3, PKC; details: cited from earlier work
T3 construct: Ki

NCI 60 cell line screen = details: cited from earlier work
PKCα [7] = target: T1, PKCα; details: cited from earlier work
protein kinase C = details: (−)-enantiomer; read-out: EC50 (potency); cited from earlier work
PKC-ε [8] = test: PKC-ε level in primary neurons (immunofluorescence, Western Blot); assay type: cell-based, rat; details: 5 μM inhibitor
Method: Cells were harvested in homogenizing buffer containing 10 mM Tris-Cl (pH 7.4), 1 mM PMSF (phenylmethylsulfonyl fluoride), 1 mM EGTA, 1 mM EDTA, 50 mM NaF, and 20 μM leupeptin and were lysed by sonication. The homogenate was centrifuged at 100,000×g for 15 min at 4° C. to obtain the cytosolic fraction (supernatant) and membrane (pellet). The pellet was resuspended in the homogenizing buffer by sonication. Protein concentration was measured using the Coomassie Plus (Bradford) Protein Assay kit (Pierce, USA). Following quantification, 20 μg of protein from each sample was subjected to SDS-PAGE analysis in 4-20% gradient Tris-Glycine gel (Invitrogen, USA). The separated protein was then transferred to nitrocellulose membrane. The membrane was blocked with BSA at room temperature for 15 min and was incubated with primary antibody over night at 4° C. After the incubation, it was washed three times with TBS-T (Tris Buffered saline-Tween 20) and further incubated with alkaline phosphatase conjugated secondary antibody (Jackson Immunoresearch Laboratories, USA) at 1:10,000 dilution for 45 min. The membrane was finally washed three times with TBS-T and developed using the 1-step NBT-BCIP substrate (Pierce, USA). Western Blot was imaged in the ImageQuant RT-ECL (GE Life Sciences, Piscataway, N.J.) and densitometric quantification was performed using the IMAL software (Blanchette Rockefeller Neurosciences Institute, Morgantown, W. Va.). For translocation assays, PKC activation was represented as the percentage of total protein in the membrane (membrane/cytosol+membrane).
Cells were grown in two chambered slides (Nunc, USA) at low density. For immunofluorescence staining, the cells were washed with PBS (pH 7.4) and fixed with 4% paraformaldehyde for 4 min. Following fixation, the cells were blocked and permeabilized with 5% serum and 0.3% Triton X 100 in 1×PBS for 30 min. […] Six individual fields at 63× oil lens magnification were analyzed for the mean fluorescence intensity (MFI) in each channel. […]

[9] = system: primary rat hippocampal neurons; test: Neuroprotection against ASPD induced toxicity, MTT, primary neurons; assay type: cell-based; details: added with DCPLA-ME, 50 nM ASPD
Method: Viability of cells was measured by MTT assay. MTT (3-(4,5-Dimethylthiazol-2-yl)-2,5-diphenyltetrazolium bromide) is a tetrazolium salt that is cleaved to formazan by the succinate dehydrogenase, which is only active in viable cells. After solubilization of the formazan, the amount of dye can be quantified with a microplate reader at 570 nm along with a reference of 630 nm. For MTT assay, 5×104 primary rat hippocampal neurons from 18-day-old embryonic Sprague-Dawley rat brains were plated on each well of 24-well plates coated with poly-D-lysine. After treatment, the cells were washed with 1×PBS and were incubated with 200 μl of 1 mg/ml MTT solution (Sigma, USA) at 37° C. for 2 hr. Then the MTT-solution was removed and the cells were lysed with 200 μl isopropanol containing 0.04 M HCl and 160 mM NaOH for 10 min. Finally, the reading was done at 570 nm and 630 nm. All the samples were done in triplicates and the data was represented as the percentage of control.
All studies used 50 nM ASPDs. The viability of the cells were measured by the MTT assay.

Sequence of PKC-δ (Q05655 whole entry): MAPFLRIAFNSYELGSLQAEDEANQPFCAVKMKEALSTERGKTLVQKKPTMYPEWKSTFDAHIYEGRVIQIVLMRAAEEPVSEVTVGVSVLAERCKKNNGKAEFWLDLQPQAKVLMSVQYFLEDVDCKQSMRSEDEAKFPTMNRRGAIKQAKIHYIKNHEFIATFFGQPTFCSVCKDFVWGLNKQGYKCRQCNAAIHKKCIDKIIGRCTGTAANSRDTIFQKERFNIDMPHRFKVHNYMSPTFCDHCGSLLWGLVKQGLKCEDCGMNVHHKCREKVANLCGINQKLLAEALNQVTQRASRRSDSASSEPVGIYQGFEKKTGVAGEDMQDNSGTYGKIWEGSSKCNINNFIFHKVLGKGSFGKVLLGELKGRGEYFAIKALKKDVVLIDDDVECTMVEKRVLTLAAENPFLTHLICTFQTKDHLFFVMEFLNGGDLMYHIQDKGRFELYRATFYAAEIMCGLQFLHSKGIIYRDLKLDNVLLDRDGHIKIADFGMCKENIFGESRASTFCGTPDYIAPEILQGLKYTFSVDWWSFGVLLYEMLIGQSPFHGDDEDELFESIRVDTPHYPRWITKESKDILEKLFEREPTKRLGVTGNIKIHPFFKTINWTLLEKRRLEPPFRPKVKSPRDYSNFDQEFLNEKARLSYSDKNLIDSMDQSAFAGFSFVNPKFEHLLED

CCCCCCCC(=O)O[C@H]1/C(=C/C(=O)OC)C[C@H]2C[C@H](CO)OC(=O)C[C@H](O)C[C@@H]3CCC[C@H](C[C@@H]4CCO[C@H](/C=C/C(C)(C)[C@]1(O)O2)O4)O3 [Analog 1]
affinity for PKC (in words) (PKC [1]): highest affinity for PKC
Ki (PKC [1]; read-out: PKC Affin): 0.00025 µM

CCC/C=C/C=C/C(=O)O[C@H]1/C(=C/C(=O)OC)C[C@H]2C[C@H]([C@@H](C)O)OC(=O)C[C@H](O)C[C@@H]3C[C@H](OC(C)=O)C(C)(C)[C@](O)(C[C@@H]4C/C(=C/C(=O)OC)C[C@H](/C=C/C(C)(C)[C@]1(O)O2)O4)O3 [Bryostatin-1]
time detectable in the blood ([2]; after a single injection): 14 days
share of initial dose in the blood ([2]; at 100 hrs, intravenous injection): 1%
t1/2 in the blood stream ([2]; blood): 1 h

CCCCCC1CC1CC1CC1CCCCCCCC(=O)OC(C)C (stereo not drawn) [DCPLA-isopropyl ester]
PKC-α activation (PKCα [3]): up to 40 % of control
PKC-ε activation at peak (PKC-ε [4]): up to 40 % of control
concentration of maximal activation (PKC-ε [4]): 10 nM
Specificity ε/α (PKC-ε [4]; Activation of PKC-ε ÷ activation or inhibition of PKCα at 3 × EC50): 1.4
effect on PKC-δ (in words) (PKC-δ): only slightly activated

CCC1CC1CC1CC1CC1CC1CC1CC1CC1CC1CC1CC1CCC(=O)O (stereo not drawn) [DHA-CP6]
effective concentration (PKC [5]): 10 nM

CC1=C[C@]23C(=O)[C@@H](C=C(COC(=O)c4ccccc4)[C@@H](O)[C@]2(O)[C@H]1OC(=O)c1ccccc1)[C@H]1[C@@H](C[C@H]3C)C1(C)C [Ingenol 3,20-dibenzoate]
Ki (PKC [6]): 0.24 µM

CC1=CC[C@H](C)C(C)(C)[C@@H]1/C=C/C(C)=C/CC[C@@]1(CO)[C@H](CCCO)/C(=C(/C)C=O)CC[C@]1(C)O [Iripallidal]
GI50 (concentration required to inhibit growth by 50%) (NCI 60 cell line screen): micromolar to nanomolar range
Ki (PKCα [7]): 0.0756 µM

CCCCCCCC(=O)OC1C(=CC(=O)OC)CC2CC(CO)OC(=O)CC(O)CCOC(CCCc3ccc(Br)cc3)CC3CCOC(C=CC(C)(C)C1(O)O2)O3 (stereo not drawn) [bryolog 5]
Ki (PKC [1]; A-ring bryologs, read-out: affinity for PKC): 0.0019 µM

CCCCCCCCc1ccc2c3c(c[nH]c13)C[C@@H](CO)NC(=O)[C@H](C(C)C)N2C [octylindolactam V, Octylindolactam V]
EC50 (protein kinase C): 0.029 µM

EAVSLKPT
effect of inhibitor on PKC-ε protection by DCPLA-ME (PKC-ε [8]): completely blocked
effect of inhibitor peptide on neuroprotection by DCPLA-ME [9]: blocked DCPLA-ME's protective effect
